Tests used:
[1] = target: T1, LINE1 reverse transcriptase (Homo sapiens, UniProt O00370); assay: Stable artificial-intron Cis LINE1 reporter assay (HeLa Tet-On 3G, Firefly luciferase); assay type: cell-based; settings: HeLa L1 artificial-intron reporter cells, doxycycline 500 ng/mL, 72 h, class symbols
T1 construct: expressed in transfected cells; host or cells: HeLa Tet-On 3G (Takara, cat no 631183)
Procedure, shortened: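 HeLa Tet-On 3G clone stably carrying a bi-directional doxycycline-inducible artificial-intron LINE1 reporter, plated at 8,000 cells/well onto serially diluted compound. Expression induced with 500 ng/mL doxycycline (final); Firefly luciferase luminescence (Dual-Glo) read 72 h after plating as LINE1 activity.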

[2] = test system: interferon-stimulated gene (ISG) response; assay: In vivo decitabine challenge model in C57BL/6 mice (ISG response); parameters: species or system mouse; settings: decitabine i.p. 5 mg/kg
Procedure: Exemplary compounds were tested for ability to alter the interferon-stimulated gene (ISG) response in C57BL/6 mice treated with decitabine. Assay procedures and results are described below. Twenty 9-11 week old C57BL/6 mice were acclimated to the lab for at least 5 days. Compound 23 was prepared in a 0.5% methylcellulose solution for p.o. administration. Decitabine (Sigma-Aldrich) was dissolved in sterile PBS (pH 7.4) and dosed within 30 minutes of preparation of the solution. Doses of both the compound and decitabine were administered once a day, every day from Day 0 to Day 4. On Day 0, mice were split into five groups of five mice and given their first dose of decitabine (i.p., 5 mg/kg) and compound 23. Dosing groups were: Decitabine and compound 23 were administered daily from Day 0 to Day 4. All mice were euthanized 1 hour after the last dose administration on Day 4. Spleens, liver, and terminal colon were collected, along with plasma from each animal. The fold changes in interferon-stimulated gene (ISG) expression was calculated by first normalizing to GAPDH gene using the Delta CT method. The CT (gene of interest)—CT (reference gene) was calculated to generate a delta CT for all samples. The fold change was then calculated by taking the Log2(Delta CT(control)—Delta CT (experimental). The control in this example was the PBS control animal group. The Taqman duplex assay was used to determine levels of GAPDH v. IFIT2. Twenty 9-11 week old C57BL/6 mice were acclimated to the lab for at least 5 days. Compound 2 was prepared in 20% PEG400 in PBS (final pH 4.5) for p.o. administration. Decitabine (Sigma) was dissolved in sterile PBS (pH 7.4) and dosed within 30 minutes of preparation of the solution. Doses of both Compound 2 and decitabine were administered once a day. On Day 0, mice were split into five groups of five mice and given their first dose of decitabine and Compound 2. […] The fold changes in interferon-stimulated gene (ISG, specifically IRF7 and MX1) expression was calculated by first normalizing to GAPDH gene using the Delta CT method. […]

[3] = test system: THP1-Dual KO-TREX1 xenograft tumors; assay: Altering IFN production in THP1 TREX1 KO xenografts (compounds 2, 25, 40); assay type: in vivo, mouse; settings: CB-17 SCID mice, decitabine 5 mg/kg IP, test compound 10, 30 or 100 mg/kg PO once daily 4 days, tumors 24 h post-last dose
Procedure: Exemplary compounds 2, 25 and 40 were tested for their ability to alter IFN levels in THP1-Dual™ KO-TREX1 xenografts in mice. Assay procedures are described below.
CB-17 SCID female mice were inoculated subcutaneously with 10 million THP1-Dual™ KO-TREX1 cells in 200 μl PBS with Matrigel (1:1) and grouped when tumor volume reached 350-400 mm^3. Mice bearing THP1-Dual™ KO-TREX1 xenograft tumors were then separated into 5 groups. Three groups were administered: (1) decitabine (DAC) at 5 mg/kg IP, once daily, for 4 days, and (2) test compound at 10, 30, or 100 mg/kg, PO, once daily, for 4 days. One group was administered decitabine (DAC) at 5 mg/kg IP, once daily, for 4 days, and the test compound vehicle control. The final group was administered the vehicle control from both the test compound and the vehicle control from decitabine. Decitabine is formulated in sterile PBS, pH 7.4, and Compound 2, 25, and 40 were formulated in 20% PEG400 in PBS.
Tumors were harvested 24 h post-last dose administered on day 4, ground in PBS at 50 Hz for 5 min, and kept on ice for 30 min while being vortexed every 5 min. […] Equal amounts of proteins were added to 96-well black plates, and luciferase signal was measured using the QUANTI-Luc™ detection medium according to manufacturer's instructions. Luminescence was measured using the EnVision® 2105 Multimode Plate Reader. […]

T1 sequence (O00370 whole entry, looked up): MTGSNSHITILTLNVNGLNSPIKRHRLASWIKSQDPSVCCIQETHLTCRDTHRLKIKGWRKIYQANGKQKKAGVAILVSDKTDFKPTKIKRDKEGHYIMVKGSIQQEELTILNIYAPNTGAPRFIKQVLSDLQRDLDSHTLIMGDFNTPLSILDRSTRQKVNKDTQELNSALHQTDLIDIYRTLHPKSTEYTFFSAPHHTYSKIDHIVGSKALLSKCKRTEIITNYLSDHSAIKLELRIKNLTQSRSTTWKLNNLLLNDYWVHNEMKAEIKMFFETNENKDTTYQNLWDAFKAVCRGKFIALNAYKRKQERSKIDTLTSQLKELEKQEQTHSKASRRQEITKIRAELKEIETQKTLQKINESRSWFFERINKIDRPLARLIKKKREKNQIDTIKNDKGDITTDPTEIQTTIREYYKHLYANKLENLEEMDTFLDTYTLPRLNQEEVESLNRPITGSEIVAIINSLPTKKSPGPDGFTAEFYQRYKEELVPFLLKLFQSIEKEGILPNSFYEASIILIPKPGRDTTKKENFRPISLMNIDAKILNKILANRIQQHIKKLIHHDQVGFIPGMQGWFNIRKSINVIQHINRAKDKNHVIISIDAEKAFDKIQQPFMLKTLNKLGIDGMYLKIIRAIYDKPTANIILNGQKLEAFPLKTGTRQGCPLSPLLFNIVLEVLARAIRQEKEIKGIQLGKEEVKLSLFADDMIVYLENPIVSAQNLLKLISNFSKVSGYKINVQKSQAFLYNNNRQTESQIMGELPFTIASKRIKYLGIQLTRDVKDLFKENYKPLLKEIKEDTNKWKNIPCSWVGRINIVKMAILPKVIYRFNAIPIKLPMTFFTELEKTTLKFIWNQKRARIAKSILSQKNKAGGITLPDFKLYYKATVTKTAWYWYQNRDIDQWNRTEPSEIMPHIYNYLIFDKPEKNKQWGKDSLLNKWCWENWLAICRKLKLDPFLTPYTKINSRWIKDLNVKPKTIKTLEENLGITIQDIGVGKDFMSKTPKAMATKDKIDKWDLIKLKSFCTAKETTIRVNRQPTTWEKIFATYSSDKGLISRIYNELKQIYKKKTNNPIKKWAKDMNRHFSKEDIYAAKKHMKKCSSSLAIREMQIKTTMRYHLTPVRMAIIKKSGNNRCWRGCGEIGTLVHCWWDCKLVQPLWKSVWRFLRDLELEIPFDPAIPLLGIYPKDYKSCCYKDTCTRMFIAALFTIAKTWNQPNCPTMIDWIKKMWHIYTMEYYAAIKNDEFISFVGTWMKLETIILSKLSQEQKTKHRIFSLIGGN

Nc1ccn([C@H]2C[C@H](O)[C@](CO)(CCl)O2)c(=O)n1 [Compound 2, 4-amino-1-((2R,4S,5R)-5-(chloromethyl)-4-hydroxy-5-(hydroxymethyl)tetrahydrofuran-2-yl)pyrimidin-2(1H)-one]
IC50 [1]: ≤ 50 nM
change in interferon-stimulated gene (ISG) response (FIG. 2A) ([2]; compound p.o. 0.6, 2.0, 6.0 mg/kg daily Day 0 to Day 4, IFIT2 v. GAPDH): change in ISG response
change in interferon-stimulated gene (ISG) response (FIGS. 2B and 2C) ([2]; compound p.o. 1, 10, 100 mg/kg daily, kidneys, IRF7 and MX1): change in the ISG response
inhibition of DAC-induced IFN signal in THP1 tumors [3]: potent inhibition of DAC-induced IFN signal

Reference: patent US20230295212A1 (ROME Therapeutics, Inc., priority 2022, published 2023)
